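Protocol summary: plate cells (96-well), add compound at 5 concentrations, incubate 48 h, interpolate endpoints linearly. Here, GI50 denotes the concentration required for 50% inhibition of growth. TGI denotes the concentration required for complete inhibition of growth.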
How the values were obtained:
Assay in all cases: NCI tumour cell line growth inhibition, 48 h; in the data active means GI50 below about 0.43 µM; inactive means the rest
SR leukemia = system: SR leukemia
SK-MEL-28 melanoma = system: SK-MEL-28 melanoma
MDA-MB-435 = system: MDA-MB-435
SNB-19 CNS = system: SNB-19 CNS
NCI-H522 lung = system: NCI-H522 lung
IGROV1 ovarian = system: IGROV1 ovarian
HL-60(TB) leukemia = system: HL-60(TB) leukemia
LOX IMVI melanoma = system: LOX IMVI melanoma
DU-145 prostate = system: DU-145 prostate
A498 renal = system: A498 renal

CCOC(=O)c1c(C)nc2c(c1N)CC(=O)N2Cc1ccc(OC)cc1
> 100 µM: TGI (SR leukemia) | TGI (SK-MEL-28 melanoma) | TGI (MDA-MB-435) | TGI (SNB-19 CNS) | TGI (NCI-H522 lung) | TGI (IGROV1 ovarian) | TGI (HL-60(TB) leukemia) | TGI (LOX IMVI melanoma) | TGI (DU-145 prostate)
inactive: GI50 (SR leukemia) 63.1 µM | GI50 (SK-MEL-28 melanoma) > 100 µM | GI50 (MDA-MB-435) > 100 µM | GI50 (SNB-19 CNS) 4.87 µM | GI50 (NCI-H522 lung) > 100 µM | GI50 (IGROV1 ovarian) 80.3 µM | GI50 (HL-60(TB) leukemia) > 100 µM | GI50 (LOX IMVI melanoma) > 100 µM | GI50 (DU-145 prostate) > 100 µM

O=C(Nc1ccc([As](=O)(O)O)cc1)Nc1cccc(Cl)c1Cl
> 100 µM: TGI (SR leukemia) | TGI (SK-MEL-28 melanoma) | TGI (MDA-MB-435) | TGI (SNB-19 CNS) | TGI (A498 renal) | TGI (NCI-H522 lung) | TGI (IGROV1 ovarian) | TGI (HL-60(TB) leukemia) | TGI (LOX IMVI melanoma) | TGI (DU-145 prostate)

Clc1nc(Cl)c2ncn(CC3(Cn4cnc5c(Cl)nc(Cl)nc54)COC3)c2n1
0.335 µM: TGI (DU-145 prostate)
active: GI50 (SR leukemia) 0.407 µM | GI50 (SK-MEL-28 melanoma) 0.212 µM | GI50 (MDA-MB-435) 0.234 µM | GI50 (SNB-19 CNS) 0.332 µM | GI50 (IGROV1 ovarian) 0.209 µM | GI50 (HL-60(TB) leukemia) 0.354 µM | GI50 (LOX IMVI melanoma) 0.18 µM | GI50 (DU-145 prostate) 0.183 µM
3.07 µM: TGI (NCI-H522 lung)
inactive: GI50 (A498 renal) 1.78 µM | GI50 (NCI-H522 lung) 0.966 µM
3.46 µM: TGI (A498 renal)
0.405 µM: TGI (IGROV1 ovarian)
0.803 µM: TGI (SNB-19 CNS)
0.396 µM: TGI (SK-MEL-28 melanoma)
0.349 µM: TGI (LOX IMVI melanoma)
2.78 µM: TGI (HL-60(TB) leukemia)
0.613 µM: TGI (MDA-MB-435)
> 100 µM: TGI (SR leukemia)

NS(=O)(=O)c1ccc(-n2nc(-c3ccc(Cl)cc3)cc2-c2cc(O)ccc2O)cc1
> 100 µM: TGI (SR leukemia) | TGI (IGROV1 ovarian)
28 µM: TGI (MDA-MB-435)
69 µM: TGI (HL-60(TB) leukemia)
inactive: GI50 (SR leukemia) 3.85 µM | GI50 (MDA-MB-435) 11.7 µM | GI50 (NCI-H522 lung) 2.58 µM | GI50 (IGROV1 ovarian) 25.4 µM | GI50 (HL-60(TB) leukemia) 10 µM | GI50 (DU-145 prostate) 18.5 µM
6.71 µM: TGI (NCI-H522 lung)
35.8 µM: TGI (DU-145 prostate)

N=C1C(c2nc3ccccc3s2)=C(O)CN1c1ccc(F)c(Cl)c1
inactive: GI50 (SR leukemia) 0.666 µM | GI50 (SK-MEL-28 melanoma) 33.3 µM | GI50 (MDA-MB-435) 61.9 µM | GI50 (SNB-19 CNS) 21.5 µM | GI50 (A498 renal) 31.2 µM | GI50 (NCI-H522 lung) 11.5 µM | GI50 (IGROV1 ovarian) 19.4 µM | GI50 (HL-60(TB) leukemia) > 100 µM | GI50 (LOX IMVI melanoma) 20.3 µM | GI50 (DU-145 prostate) 36.1 µM
85.7 µM: TGI (SNB-19 CNS)
58.3 µM: TGI (IGROV1 ovarian)
> 100 µM: TGI (SK-MEL-28 melanoma) | TGI (MDA-MB-435) | TGI (HL-60(TB) leukemia) | TGI (LOX IMVI melanoma) | TGI (DU-145 prostate)
63.2 µM: TGI (NCI-H522 lung)
6.33 µM: TGI (SR leukemia)
73.2 µM: TGI (A498 renal)

O=c1[nH]c(=O)c2cn[nH]c2[nH]1
inactive: GI50 (SR leukemia) > 100 µM | GI50 (SK-MEL-28 melanoma) > 100 µM | GI50 (MDA-MB-435) > 100 µM | GI50 (SNB-19 CNS) > 100 µM | GI50 (A498 renal) > 100 µM | GI50 (NCI-H522 lung) > 100 µM | GI50 (IGROV1 ovarian) > 100 µM | GI50 (HL-60(TB) leukemia) > 100 µM | GI50 (LOX IMVI melanoma) > 100 µM | GI50 (DU-145 prostate) > 100 µM
> 100 µM: TGI (SR leukemia) | TGI (SK-MEL-28 melanoma) | TGI (MDA-MB-435) | TGI (SNB-19 CNS) | TGI (A498 renal) | TGI (NCI-H522 lung) | TGI (IGROV1 ovarian) | TGI (HL-60(TB) leukemia) | TGI (LOX IMVI melanoma) | TGI (DU-145 prostate)

Source: PubChem BioAssay (NCI)
